Measurements from ChEMBL document CHEMBL1687769, “High cefepime plasma concentrations and neurological toxicity in febrile neutropenic patients with mild impairment of renal function” (Antimicrob Agents Chemother, 2010).

What was measured:
[1] = Cmin in febrile neutropenic patient with GFR of <40 ml/min at 2 g administered as 30 mins infusion every 8 hrs measured after 4 days by HPLC analysis; type: ADME, organism-based; conditions: human, in vivo, iv, read-out: Cmin
[2] = Cmin in febrile neutropenic patient with neurological disorder at 2 g administered as 30 mins infusion every 8 hrs measured after 4 days by HPLC analysis; type: ADME, organism-based; conditions: human, in vivo, iv, read-out: Cmin
Homo sapiens [3] = assay: Neurotoxicity in febrile neutropenic patient assessed as hallucinations at 2 g administered as 30 mins infusion every 8 hrs; type: toxicity, organism-based; conditions: in vivo, iv
Homo sapiens [4] = assay: Neurotoxicity in febrile neutropenic patient assessed as confusion at 2 g administered as 30 mins infusion every 8 hrs; type: toxicity, organism-based; conditions: in vivo, iv
Homo sapiens [5] = assay: Neurotoxicity in febrile neutropenic patient assessed as myoclonia at 2 g administered as 30 mins infusion every 8 hrs; type: toxicity, organism-based; conditions: in vivo, iv

CO/N=C(\C(=O)N[C@@H]1C(=O)N2C(C(=O)[O-])=C(C[N+]3(C)CCCC3)CS[C@H]12)c1csc(N)n1 [CEFEPIME]
concentration at 4 days [1]: 11400 ng/mL
concentration at 4 days [2]: 28000 ng/mL
Activity (Homo sapiens [3]): Toxic
Activity (Homo sapiens [4]): Toxic
Activity (Homo sapiens [5]): Toxic
